In the assay the target is PFKFB3 (Homo sapiens (Human), UniProt Q16875). Put plainly: PFKFB3 kinase activity, Method A (F-2,6-P2 production, coupled PPi-PFK/NADH assay). The assay is classed as biochemical. The text has this:
The PFKFB3 (placenta form) and PFKFB4 were produced and purified to homogeneity from E. coli at Biovitrum and at Sprint Bioscience. All other reagents were purchased from commercial sources. Two independent methods have been used for determination of the kinase activity of PFKFB3 (Method A and Method B). Method B has been used for determination of the kinase activity of PFKFB4.
Method A: The kinase activity of the bi-functional enzyme is readily quantified based on the production of F-2,6-P2 as described by Van Schaftingen et al. (1982) Eur. J. Biochem. 129, 191-5. This sensitive assay is based on the potent activation of pyrophosphate dependent phosphofructokinase-1 (PPi-PFK) from potato tubers by F-2,6-P2. The use of a series of coupled enzymes leads to a consumption of NADH (nicotinamide adenine dinucleotide) that can be followed spectrophotometrically (an updated protocol is available in Van Schaftingen, (1984) Methods of Enzymatic Analysis (Bergmeyer, H. U., ed.), 3rd edn., vol. 6, pp. 335-341, Verlag Chemie, Weinheim). A protocol for measurements in 96-well microtiter plate format is also available (Bruni et al., (1989) Anal. Biochem. 178, 324-6). These assay protocols have been adopted for the measurement of the kinase activity of PFKFB3 with some modifications as described in the protocol below.
The assay was run in 96-well microtiter plates (Costar 3365 round bottom polypropylene) by consecutive additions of 30 μl each of a test compound solution (diluted from a DMSO stock solution), a PFKFB3 solution and a substrate (fructose-6-phosphate (F6P) and adenosine-5′-triphosphate (ATP)) containing solution. […] The final concentrations of all reagents in a total assay volume of 90 μl per well were: • 50 mM Tris-acetate at pH 8.0 • 0.1 mM EDTA (ethylene diamine tetraacetic acid) • 10 mM MgCl2 • 5 mM Na2HPO4 (buffered by the Tris-acetate to a final pH of 8.0) • 5 nM PFKFB3 • 4 μM ATP • 100 μM F6P (acid treated and then neutralized to remove any contaminating F-2,6-P2; see Van Schaftingen, 1984) • 1 mM dithiothreitol (DTT) • 0.005% Tween-20
A test compound at various concentrations (which also added 0.83% DMSO to the final solution)
The enzymatic reaction was allowed to proceed for 10 minutes at room temperature while on a plate shaker at medium speed (750 RPM). The reaction was then terminated by the addition of 90 μl of a 0.4 M NaOH solution to all wells. The plate was then placed on the plateshaker at the same speed for two minutes to allow sufficient mixing. All samples were then diluted by a factor of 10 by transferring 20 μl from each well to the corresponding well of a new plate with 180 μl distilled water predispensed to all wells.
The next step in the protocol was quantification of the levels of F-2,6-P2 in each well of the microtiter plate. This was done by transferring 20 μl of the content in each well to the corresponding position in a new plate (Nunc 269620 transparent 96-well plate). […] To ensure that all measured values were within the linear range of the response (measured to be between 0-1 nM of F-2,6-P2 as also described by Van Schaftingen) the same volume of a 2.5 nM and a 5.0 nM standard sample were also added to column 12 (as all samples were diluted five-fold in the assay procedure this corresponds to 0.5 and 1.0 nM samples). The procedure then involved consecutive additions of three solutions with the following premixed components: • Assay-mix (20 μl): Tris-acetate at pH 8.0, NADH and Mg(OAc)2 • PPi/F6P-mix (40 μl): Pyrophosphate and F6P • Enzyme-mix (20 μl): Tris-acetate at pH 8.0, aldolase, triose phosphate isomerase, glycerol-3-phosphate dehydrogenase, pyrophosphate-dependent phosphofructokinase from potato tubers and bovine serum albumin (BSA) […]
PFKFB3, sequence (Q16875 whole entry): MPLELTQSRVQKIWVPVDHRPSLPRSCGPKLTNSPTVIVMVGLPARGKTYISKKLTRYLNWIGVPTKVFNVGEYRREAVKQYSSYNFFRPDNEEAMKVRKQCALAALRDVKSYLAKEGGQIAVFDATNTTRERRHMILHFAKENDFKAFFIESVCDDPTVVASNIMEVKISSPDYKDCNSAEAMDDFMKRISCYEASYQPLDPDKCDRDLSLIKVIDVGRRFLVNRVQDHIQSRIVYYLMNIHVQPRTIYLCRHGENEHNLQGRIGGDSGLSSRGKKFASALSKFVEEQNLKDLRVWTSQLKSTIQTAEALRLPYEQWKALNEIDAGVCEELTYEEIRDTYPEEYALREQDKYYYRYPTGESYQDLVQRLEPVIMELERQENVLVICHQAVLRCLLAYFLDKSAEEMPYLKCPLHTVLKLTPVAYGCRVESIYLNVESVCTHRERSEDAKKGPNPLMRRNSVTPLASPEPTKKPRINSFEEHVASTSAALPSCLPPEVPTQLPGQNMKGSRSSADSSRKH
As for `O=S(=O)(Nc1cccc(-c2nnn[nH]2)c1)c1cccc(-c2cc(Cl)cc(Cl)c2)c1` [Example 52, 3-(3,5-Dichlorophenyl)-N-[3-(1-H-tetrazol-5-yl)phenyl]benzenesulfonamide], the IC50 (usually the concentration that inhibits the measured activity by half) came out at 2540 nM. In the case of `O=C(O)c1cccc(NS(=O)(=O)c2ccc(-c3ccccn3)s2)c1` [Example 78, 3-{[(5-Pyridin-2-yl-2-thienyl)sulfonyl]amino}benzoic acid], it took 6690 nM to reach half-maximal inhibition (IC50). Compared with the last molecule, the IC50 is about 2.6-fold higher. Consider `Cc1c(S(=O)(=O)Nc2cccc(-c3nnn[nH]3)c2)sc2ccc(N)cc12` [Example 48, 5-Amino-3-methyl-N-[3-(1H-tetrazol-5-yl)phenyl]-1-benzothiophene-2-sulfonamide], for which the IC50 was found to be 360 nM. Compared with the last molecule, the IC50 is about 19-fold lower. Regarding `O=S(=O)(Nc1cccc(-c2nnn[nH]2)c1)c1ccc(-c2cnco2)s1` [Example 2, 5-(1,3-Oxazol-5-yl)-N-[3-(1H-tetrazol-5-yl)phenyl]thiophene-2-sulfonamide], inhibition was half-maximal at 3910 nM (IC50). `Cc1c(S(=O)(=O)Nc2cccc(C(=O)O)c2)oc2ccc(C(C)C)cc12` [Example 14, 3-{[(5-Isopropyl-3-methyl-1-benzofuran-2-yl)sulfonyl]amino}benzoic acid] yielded an IC50 of 280 nM. This IC50 lies about 14-fold lower than the previous one.

For `Cc1cc(Cl)cc(Cl)c1S(=O)(=O)Nc1cccc(-c2nnn[nH]2)c1` [Example 53, 2,4-Dichloro-6-methyl-N-[3-(1H-tetrazol-5-yl)phenyl]benzenesulfonamide], 1780 nM corresponded to half-maximal inhibition (IC50). For the molecule `CC(=O)Nc1ccc2sc(S(=O)(=O)Nc3cccc(C(=O)O)c3)c(C)c2c1` [Example 49, 3-({[5-(Acetylamino)-3-methyl-1-benzothien-2-yl]sulfonyl}amino)benzoic acid], the IC50 turned out to be 5070 nM. This IC50 lies about 2.8-fold higher than the previous one. On to `O=S(=O)(Nc1cccc(-c2nnn[nH]2)c1)c1ccc(Br)cc1C(F)(F)F` [Example 56, 4-Bromo-N-[3-(1H-tetrazol-5-yl)phenyl]-2-(trifluoromethyl)benzenesulfonamide], for which the IC50 stood at 1120 nM. Molecule `COc1ccc(-c2cccc(S(=O)(=O)Nc3cccc(-c4nnn[nH]4)c3)c2)cc1` [Example 19, 4′-Methoxy-N-[3-(1H-tetrazol-5-yl)phenyl]biphenyl-3-sulfonamide] registered an IC50 of 720 nM. With `O=S(=O)(Nc1cccc(-c2nnn[nH]2)c1)c1ccc(-c2cnco2)cc1` [Example 83, 4-(1,3-Oxazol-5-yl)-N-[3-(1H-tetrazol-5-yl)phenyl]benzenesulfonamide], the IC50 turned out to be 8450 nM. Against the preceding molecule, the IC50 is about 12-fold higher. In turn, `Cc1c(S(=O)(=O)Nc2cc(C(=O)O)cc([N+](=O)[O-])c2)sc2ccc(C(C)C)cc12` [Example 11, 3-{[(5-Isopropyl-3-methyl-1-benzothien-2-yl)sulfonyl]amino}-5-nitrobenzoic acid] displayed an IC50 of 850 nM. This IC50 lies about 9.9-fold lower than the previous one.

On to `O=S(=O)(Nc1cccc(-c2nnn[nH]2)c1)c1cccc(-c2ccc(C(F)(F)F)cc2)c1` [Example 55, N-[3-(1H-Tetrazol-5-yl)phenyl]-3-[4-(trifluoromethyl)phenyl]benzenesulfonamide], for which the IC50 came to 5750 nM.

In the case of `O=S(=O)(Nc1cccc(-c2nnn[nH]2)c1)c1ccc(-c2nsc(Cl)n2)s1` [Example 59, 5-(5-Chloro-1,2,4-thiadiazol-3-yl)-N-[3-(1H-tetrazol-5-yl)phenyl]thiophene-2-sulfonamide], the midpoint of inhibition, the IC50, lay at 560 nM. `Cc1c(S(=O)(=O)Nc2cccc(-c3nnn(CC(=O)O)n3)c2)sc2ccc(C(C)C)cc12` [Example 12, [5-(3-{[(5-Isopropyl-3-methyl-1-benzothien-2-yl)sulfonyl]amino}phenyl)-2H-tetrazol-2-yl]acetic acid] registered an IC50 of 1020 nM. `O=S(=O)(Nc1cccc(-c2nnn[nH]2)c1)c1ccc(-c2ccccc2)cc1` [Example 31, N-[3-(1H-Tetrazol-5-yl)phenyl]biphenyl-4-sulfonamide]: the IC50 is 1390 nM. In the case of `O=C(O)c1cccc(NS(=O)(=O)c2ccc(-c3ccon3)s2)c1` [Example 79, 3-{[(5-Isoxazol-3-yl-2-thienyl)sulfonyl]amino}benzoic acid], the IC50 was found to be 6310 nM. `Cc1c(S(=O)(=O)Nc2cccc(C(=O)O)n2)sc2ccc(C(C)C)cc12` [Example 10, 6-{[(5-Isopropyl-3-methyl-1-benzothien-2-yl)sulfonyl]amino}pyridine-2-carboxylic acid] had an IC50 of 810 nM. This IC50 is about 7.8-fold lower than that of the molecule before. `Cc1c(S(=O)(=O)Nc2cncc(C(=O)O)c2)sc2ccc(C(C)C)cc12` [Example 9, 5-{[(5-Isopropyl-3-methyl-1-benzothien-2-yl)sulfonyl]amino}nicotinic acid]: the IC50 was found to be 730 nM.

`Cc1nc(-c2ccc(S(=O)(=O)Nc3cccc(-c4nnn[nH]4)c3)s2)cs1` [Example 25, 5-(2-Methyl-1,3-thiazol-4-yl)-N-[3-(1H-tetrazol-5-yl)phenyl]thiophene-2-sulfonamide] showed an IC50 of 310 nM. Take `NC(=O)c1cccc(-c2ccc(S(=O)(=O)Nc3cccc(-c4nnn[nH]4)c3)s2)c1` [Example 58, 3-[5-[[3-(1H-Tetrazol-5-yl)phenyl]sulfamoyl]-2-thienyl]benzamide]: the IC50 was 540 nM. With `O=S(=O)(Nc1cccc(-c2nnn[nH]2)c1)c1ccc(Cl)c(Cl)c1Cl` [Example 1, 2,3,4-Trichloro-N-[3-(1H-tetrazol-5-yl)phenyl]benzenesulfonamide], the midpoint of inhibition, the IC50, lay at 280 nM. Then `Cc1c(S(=O)(=O)Nc2cccc(-c3nnn[nH]3)c2)oc2ccc(C(C)C)cc12` [Example 13, 5-Isopropyl-3-methyl-N-[3-(1H-tetrazol-5-yl)phenyl]-1-benzofuran-2-sulfonamide], with 80 nM.

`Cc1c(S(=O)(=O)Nc2cccc(CC(=O)O)c2)sc2ccc(C(C)C)cc12` [Example 15, (3-{[(5-Isopropyl-3-methyl-1-benzothien-2-yl)sulfonyl]amino}phenyl)acetic acid] displayed an IC50 of 230 nM. Then `O=S(=O)(Nc1cccc(-c2nnn[nH]2)c1)c1ccc2ccccc2c1` [Example 20, N-[3-(1H-Tetrazol-5-yl)phenyl]naphthalene-2-sulfonamide], with 850 nM. In the case of `O=S(=O)(Nc1cccc(-c2nnn[nH]2)c1)c1cccc(-c2ccc(F)cc2)c1` [Example 17, 4′-Fluoro-N-[3-(1H-tetrazol-5-yl)phenyl]biphenyl-3-sulfonamide], the IC50 came out at 450 nM. `O=S(=O)(Nc1cccc(-c2nnn[nH]2)c1)c1ccc(F)cc1Cl` [Example 81, 2-Chloro-4-fluoro-N-[3-(1H-tetrazol-5-yl)phenyl]benzenesulfonamide] gave an IC50 of 9840 nM. Compared with the last molecule, the IC50 is about 22-fold higher.

In turn, `Cc1nc(NS(=O)(=O)c2sc3ccc(C(C)C)cc3c2C)sc1C(=O)O` [Example 8, 2-{[(5-Isopropyl-3-methyl-1-benzothien-2-yl)sulfonyl]amino}-4-methyl-1,3-thiazole-5-carboxylic acid] gave an IC50 of 610 nM.

The values are drawn from patent US9233946B2, “Sulfonamide compounds” (KANCERA AB, priority 2010, dated 2016).
